Measurements from patent publication US20140186376A1, “Compositions and Methods for Inhibiting CCL3” (University of Rochester, priority 2012, published 2014).

System: osteoclasts
Experiment: Zoledronic acid treatment of normal mice: serum bone markers (ELISA) and micro-CT bone volumes
Type: in vivo
Settings: normal ZA-treated mice; 0.25 mg/kg i.p. bi-weekly; vehicle 142±28; p=0.0296
Method: The right hindlimb of each mouse was fixed in 10% Formalin for 48 hours, and then stored in 70% ethanol at 4° C. MicroCT analysis was performed as previously described (2009, Frisch et al., Blood 114:4054-4063).
All ELISAs were performed as indicated by the manufacturer's instructions. CTX measurements were performed using the RatLaps ELISA (AC-06F1, Immunodiagnostic Systems Inc.). TRACP 5b measurement was performed using Mouse TRAP ELISA (SB-TR103, Immunodiagnostic Systems Inc.). Osteocalcin measurement performed using the Mouse Osteocalcin EIA kit (BT-470, Biomedical Technologies). Bovine CTX from bone wafer culture media was measured using the Crosslaps® for Culture ELISA (AC-07F1, Immunodiagnostic Systems Inc.). Murine CCL3 protein measurement was performed using the Mouse CCL3/MIP-1 alpha Quantikine ELISA Kit (MMA00, R&D systems). Human CCL3 protein measurement was performed using the Human CCL3/MIP-1 alpha Quantikine ELISA Kit (DMA00, R&D systems).
Mice were given a 0.25 mg/kg intraperitoneal injection of zoledronic acid (ZA) bi-weekly for 2 weeks prior to induction of disease and throughout the course of the disease.

## O=P(O)(O)C(O)(Cn1ccnc1)P(=O)(O)O [ZA, Zoledronic acid]
  serum levels of osteocalcin: 49 ± 1 ng/mL
